Here are results for 1 molecule from patent USRE39149E1, “Method of administering azithromycin” (Pfizer Inc., priority 1994, dated 2006).

This series can be described thus: Stability of azithromycin at acid pH / in stomach juices. The class given is physicochemical. The source says: Thus, without being bound to any mechanism of action, it is surprising that rapid disintegration in the GI tract appears to be of importance to the invention.

For the molecule `CC[C@H]1OC(=O)[C@H](C)[C@@H](O[C@H]2C[C@@](C)(OC)[C@@H](O)[C@H](C)O2)[C@H](C)[C@@H](O[C@@H]2O[C@H](C)C[C@H](N(C)C)[C@H]2O)[C@](C)(O)C[C@@H](C)CN(C)[C@H](C)[C@@H](O)[C@]1(C)O` [azithromycin, 9a-aza-9a-methyl-9-deoxo-9a-homoerythromycin A], the “stability at low (acid) pH” value (on the order of the pH of stomach acid) was “unstable”. Further, for the setting “stomach juices, acid pH”, the “stability on exposure to stomach juices” value is “breaks down”.
